# In patent US20200077656A1, “Use of an Acyclic Picolinamide Compound as a Fungicide for Control of Phytopathogenic Fungi in Row Crops” (priority 2017, published 2020):
# Columns and labels:
# Cercospora sojina = test: Field assessment of Cercospora sojina (CERSO) in soybean; format: in vivo; conditions: for Percent Visual Severity of CERCSO: soybean upper canopy, untreated 8.6; for CERCSO Percent of Untreated (AUDPC): leaftop severity
# [1] = system: Blumeria graminis f. sp. tritici; test: Field assessment of Blumeria graminis f. sp. tritici (ERYSGT) on wheat; format: in vivo
# Method: Field Assessment of Blumeria graminis f sp. […] Disease severity was recorded as a percentage of visual diseased foliage on whole plot. […] infection was assessed three times at 12, 19 and 26 days after the last application. The disease infection was recorded following EPPO PP1/26 guideline prescriptions. Area under the disease progress curve (AUDPC) was calculated for each plot using the sets of recorded severity data. Relative AUDPC (% control based on AUDPC) was calculated as percent of the nontreated control.
# Puccinia polysora = test: Field assessment of Puccinia polysora (PUCCPY) in corn; format: in vivo; conditions: EC + Trycol adjuvant
# Pyrenophora teres = test: Field assessment of Pyrenophora teres (PYRNTE) on barley, Trial 1 (inoculated); format: in vivo; conditions: EC + Trycol
# Text: Field Assessment of Pyrenophora teres ([…]) on Barley: A fungicidal treatment containing an EC formulation of compound I, tanked mixed with an adjuvant (Trycol, 50% w/w at 0.1% v/v), was sprayed on barley plants (spring barley; […] variety) twice, the first application at BBCH 37-43 growth stages of spring barley (0.01% infection on L1 at application) and the second application at growth stages 53-57 of spring barley (6.25% infection at application). […] The experimental plots were inoculated with net blotch of barley (1,000,000 spores/mL) at growth stage 39 of spring barley 1 day after the first […]. […] Disease severity was recorded as a percentage of visual diseased foliage on whole plot. Net blotch of barley infection was assessed three times at 7, 14 and 21 days after the last application. The disease infection was recorded following EPPO PP1/26 guideline prescriptions. Area under the disease progress curve (AUDPC) was calculated for each plot using the sets of recorded severity data. Relative AUDPC (% control based on AUDPC) was calculated as percent of the nontreated control.
# Sclerotium rolfsii = test: Field assessment of Sclerotium rolfsii (SCLORO) in peanut, percent stem incidence; conditions: 42 DAAD, untreated 41.8
# Method: Four applications, at two week intervals were made to each trial, starting at growth stage BBCH66 and continuing through BBCH84. The experimental plots were conducted with natural infestation of the pathogen. The treatment was part of an experimental trial designed as a randomized complete block (RCB) with four replications and a plot of approximately 6×40 ft.
# Percent stem incidence (percent of stems with any disease, based on 80 stems counted per plot) was assessed at 42 days after application D (42 DAAD).
# Cercospora beticola = test: Field assessment of Cercospora beticola (CERCBE) on sugar beet, two trials averaged; format: in vivo
# Method: Field Assessment of Cercospora beticola (CERCBE) on Sugar Beet: Assessment of compound I of CERCBE on sugar beet was performed in two separate field trials. In the first trial, a fungicidal treatment containing an EC and SC formulations of compound I by itself and in combination with an adjuvant (Phase II, 50% w/w at 0.5% v/v) was sprayed on sugar beet plants ([…] variety) six times during the course of 7 weeks at the 18-39 growth stages of sugar beet. […] In the second trial, a fungicidal treatment containing an EC and SC formulations of compound I by itself and in combination with an adjuvant (Phase II, 50% w/w at 0.5% v/v) was sprayed on sugar beet plants (BEAVA) five times during the course of 4 weeks at the 36-49 growth stages of sugar beet. […] Disease severity was recorded as a percentage of visual diseased foliage on whole plot. Cercospora leaf spot infection was assessed three times at 7, 14 and 21 days after the last application. The disease infection was recorded following EPPO PP 1/1 (4) guideline prescriptions. Area under the disease progress curve (AUDPC) was calculated for each plot using the sets of recorded severity data. Relative AUDPC (% control based on AUDPC) was calculated as percent of the nontreated control and averaged over both field trials.
# Cercospora zeae-maydis = test: Field assessment of Cercospora zeae-maydis (CERCZM) in corn; format: in vivo; conditions: EC + Trycol adjuvant
# Method: Field Assessment of Cercospora zeae-Maydis (CERCZM) in Corn: […] The experimental plots were inoculated with grey leaf spot 24 hr after application. […] Disease severity (percentage of visual diseased foliage on whole plot) was assessed five times during the trial (22-50 days after application, DAA). The disease infection was recorded following EPPO PP1/26 guideline prescriptions. Area under the disease progress curve (AUDPC) was calculated for each plot using the sets of recorded severity data. Relative AUDPC (% control based on AUDPC) was calculated as percent of the nontreated control.
# [2] = 50 g/ha, Agnique BP420 200 mL/ha
# [3] = 75 g/ha, Agnique BP420 300 mL/ha
# [4] = 100 g/ha, Adsee C80W 80% 250 g/ha
# [5] = 100 g/ha, Agnique BP420 400 mL/ha
# [6] = 150 g/ha, Agnique BP420 600 mL/ha
compound,measurement,setting,value
"COc1ccnc(C(=O)N[C@@H](C)C(=O)O[C@@H](C)C(c2ccc(F)cc2)c2ccc(F)cc2)c1OC(C)=O [Compound I, (S)-1,1-bis(4-fluorophenyl)propan-2-yl (3-acetoxy-4-methoxypicolinoyl)-L-alaninate]",Percent Visual Severity of CERCSO,Cercospora sojina; [2],5.6%
same,Percent Visual Severity of CERCSO,"Cercospora sojina; 50 g/ha, MSO 100 g/ha",6.5%
same,Percent Visual Severity of CERCSO,Cercospora sojina; [3],4.2%
same,Percent Visual Severity of CERCSO,"Cercospora sojina; 75 g/ha, MSO 150 g/ha",3.6%
same,Percent Visual Severity of CERCSO,Cercospora sojina; [4],4.5%
same,Percent Visual Severity of CERCSO,Cercospora sojina; [5],4.5%
same,Percent Visual Severity of CERCSO,"Cercospora sojina; 100 g/ha, MSO 200 g/ha",4.3%
same,Percent Visual Severity of CERCSO,Cercospora sojina; [6],3.3%
same,Percent Visual Severity of CERCSO,"Cercospora sojina; 150 g/ha, MSO 300 g/ha",3.3%
same,CERCSO Percent of Untreated (AUDPC),Cercospora sojina; [2],62.0%
same,CERCSO Percent of Untreated (AUDPC),"Cercospora sojina; 50 g/ha, MSO 100 g/ha",73.8%
same,CERCSO Percent of Untreated (AUDPC),Cercospora sojina; [3],63.1%
same,CERCSO Percent of Untreated (AUDPC),"Cercospora sojina; 75 g/ha, MSO 150 g/ha",62.9%
same,CERCSO Percent of Untreated (AUDPC),Cercospora sojina; [4],58.3%
same,CERCSO Percent of Untreated (AUDPC),Cercospora sojina; [5],61.6%
same,CERCSO Percent of Untreated (AUDPC),"Cercospora sojina; 100 g/ha, MSO 200 g/ha",52.4%
same,CERCSO Percent of Untreated (AUDPC),Cercospora sojina; [6],48.4%
same,CERCSO Percent of Untreated (AUDPC),"Cercospora sojina; 150 g/ha, MSO 300 g/ha",53.5%
same,% Control (AUDPC) of ERYSGT,"[1]; 5 g ai/ha, EC + Agnique BP-420",C (26-50)
same,% Control (AUDPC) of ERYSGT,"[1]; 5 g ai/ha, SC + Agnique BP-420",C (26-50)
same,% Control (AUDPC) of ERYSGT,"[1]; 20 g ai/ha, EC + Agnique BP-420",A (76-100)
same,% Control (AUDPC) of ERYSGT,"[1]; 20 g ai/ha, SC + Agnique BP-420",B (51-75)
same,% Control (AUDPC) of ERYSGT,"[1]; 40 g ai/ha, EC + Agnique BP-420",A (76-100)
same,% Control (AUDPC) of ERYSGT,"[1]; 40 g ai/ha, SC + Agnique BP-420",A (76-100)
same,% Control (AUDPC) of ERYSGT,"[1]; 60 g ai/ha, EC + Agnique BP-420",A (76-100)
same,% Control (AUDPC) of ERYSGT,"[1]; 60 g ai/ha, SC + Agnique BP-420",A (76-100)
same,% Control (AUDPC) of ERYSGT,"[1]; 80 g ai/ha, EC + Agnique BP-420",A (76-100)
same,% Control (AUDPC) of ERYSGT,"[1]; 80 g ai/ha, SC + Agnique BP-420",A (76-100)
same,% Control (AUDPC) of ERYSGT,"[1]; 120 g ai/ha, EC + Agnique BP-420",A (76-100)
same,% Control (AUDPC) of ERYSGT,"[1]; 120 g ai/ha, SC + Agnique BP-420",A (76-100)
same,"Disease control of PUCCPY, percent control based on AUDPC",Puccinia polysora; 50 g ai/ha,C (26-50)
same,"Disease control of PUCCPY, percent control based on AUDPC",Puccinia polysora; 100 g ai/ha,B (51-75)
same,"Disease control of PUCCPY, percent control based on AUDPC",Puccinia polysora; 150 g ai/ha,B (51-75)
same,"% Control (AUDPC) of PYRNTE, Trial 1",Pyrenophora teres; 75 g ai/ha,B (51-75)
same,"% Control (AUDPC) of PYRNTE, Trial 1",Pyrenophora teres; 100 g ai/ha,B (51-75)
same,"% Control (AUDPC) of PYRNTE, Trial 1",Pyrenophora teres; 150 g ai/ha,B (51-75)
same,Calc Percent Stem Incidence of SCLORO,Sclerotium rolfsii; [2],41.6%
same,Calc Percent Stem Incidence of SCLORO,"Sclerotium rolfsii; 50 g/ha, MSO 100 g/ha",39.1%
same,Calc Percent Stem Incidence of SCLORO,Sclerotium rolfsii; [3],33.2%
same,Calc Percent Stem Incidence of SCLORO,"Sclerotium rolfsii; 75 g/ha, MSO 150 g/ha",33.0%
same,Calc Percent Stem Incidence of SCLORO,Sclerotium rolfsii; [5],27.9%
same,Calc Percent Stem Incidence of SCLORO,"Sclerotium rolfsii; 100 g/ha, MSO 200 g/ha",28.2%
same,Calc Percent Stem Incidence of SCLORO,Sclerotium rolfsii; [6],29.6%
same,Calc Percent Stem Incidence of SCLORO,"Sclerotium rolfsii; 150 g/ha, MSO 300 g/ha",24.7%
same,% Control (AUDPC) of CERCBE,"Cercospora beticola; EC, 75 g ai/ha, no adjuvant",B (51-75)
same,% Control (AUDPC) of CERCBE,"Cercospora beticola; EC, 75 g ai/ha, with Phase II adjuvant",B (51-75)
same,% Control (AUDPC) of CERCBE,"Cercospora beticola; EC, 150 g ai/ha, no adjuvant",A (76-100)
same,% Control (AUDPC) of CERCBE,"Cercospora beticola; SC, 75 g ai/ha, no adjuvant",B (51-75)
same,% Control (AUDPC) of CERCBE,"Cercospora beticola; SC, 75 g ai/ha, with Phase II adjuvant",B (51-75)
same,% Control (AUDPC) of CERCBE,"Cercospora beticola; SC, 150 g ai/ha, no adjuvant",A (76-100)
same,"Disease control of CERCZM, percent control based on AUDPC",Cercospora zeae-maydis; 50 g ai/ha,B (51-75)
same,"Disease control of CERCZM, percent control based on AUDPC",Cercospora zeae-maydis; 100 g ai/ha,B (51-75)
same,"Disease control of CERCZM, percent control based on AUDPC",Cercospora zeae-maydis; 150 g ai/ha,B (51-75)
